Like-named read-outs stand apart in the source and are kept apart here.
Key:
[1] = target: T1, 5HT2B receptors (Homo sapiens, UniProt P41595); test: Human 5-HT2B functional high throughput screening assay in CHO-K1 cells (calcium flux); type: cell-based; conditions: for EC50: CHO-K1 cells, calcium flux
T1 construct: expressed in transfected cells; host or cells: CHO-K1 cells
Summary of the method: (§1)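 Agonism is measured as intracellular calcium increase in receptor-overexpressing CHO-K1 cells, read by FLIPR at 25 °C. Responses are expressed relative to serotonin, with EC50 and Emax derived from a 4-parameter logistic curve over 6 concentrations starting at 10 μM.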

[2] = target: T2, 5HT2C receptors (Homo sapiens, UniProt P28335); test: Human 5-HT2C functional high throughput screening assay in CHO-K1 cells (calcium flux); type: cell-based; design: expressed in transfected cells; host or cells: CHO-K1 cells; conditions: for EC50: CHO-K1 cells, calcium flux; for Emax: CHO-K1, 5-HT2C, maximum functional response as percentage relative to the effect of serotonin
T2 sequence (P28335 33-458): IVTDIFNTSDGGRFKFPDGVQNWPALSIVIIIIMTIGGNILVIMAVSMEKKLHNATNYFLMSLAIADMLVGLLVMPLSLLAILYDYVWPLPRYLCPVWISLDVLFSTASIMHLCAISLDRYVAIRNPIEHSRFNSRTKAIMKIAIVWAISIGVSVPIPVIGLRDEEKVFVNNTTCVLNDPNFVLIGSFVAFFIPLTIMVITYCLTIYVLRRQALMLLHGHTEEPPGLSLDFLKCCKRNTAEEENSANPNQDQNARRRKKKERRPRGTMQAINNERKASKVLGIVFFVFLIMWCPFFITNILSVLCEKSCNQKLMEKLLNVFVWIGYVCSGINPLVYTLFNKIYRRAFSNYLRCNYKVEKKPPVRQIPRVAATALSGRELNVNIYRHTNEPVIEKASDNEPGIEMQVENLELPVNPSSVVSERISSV
Summary of the method: as §1

[3] = 5-HT2B agonist activity, read-out: EC50
[4] = 5-HT2B, maximum functional response as percentage relative to the effect of serotonin
[5] = 5-HT2C agonist activity, read-out: EC50
[6] = CHO-K1, 5-HT2B, maximum functional response as percentage relative to the effect of serotonin, read-out: Emax

T1 sequence (P41595 whole entry): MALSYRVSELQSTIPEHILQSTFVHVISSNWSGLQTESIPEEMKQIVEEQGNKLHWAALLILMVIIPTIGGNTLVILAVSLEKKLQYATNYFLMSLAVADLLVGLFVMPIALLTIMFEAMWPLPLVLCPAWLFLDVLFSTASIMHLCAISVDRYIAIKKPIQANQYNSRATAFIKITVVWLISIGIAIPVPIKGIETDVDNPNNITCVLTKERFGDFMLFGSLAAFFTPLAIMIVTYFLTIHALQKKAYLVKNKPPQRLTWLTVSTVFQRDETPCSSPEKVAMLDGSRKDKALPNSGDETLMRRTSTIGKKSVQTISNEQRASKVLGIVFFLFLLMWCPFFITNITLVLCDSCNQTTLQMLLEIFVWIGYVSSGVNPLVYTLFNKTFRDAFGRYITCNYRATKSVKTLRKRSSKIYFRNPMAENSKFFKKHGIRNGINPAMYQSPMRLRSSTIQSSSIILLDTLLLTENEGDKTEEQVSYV

| SMILES | EC50 [1, 3] [µM] | Emax [1, 4] | EC50 [2, 5] [nM] | Emax ([2]; read-out: Emax) [%] | Emax [1, 6] [%] | Emax [2] [%] | Emax ([1]; CHO-K1) [%] | EC50 ([1]; EC50, 5-HT2B agonist activity) [µM] | EC50 ([2]; EC50, 5-HT2C agonist activity) [nM] |
| --- | --- | --- | --- | --- | --- | --- | --- | --- | --- |
| C[C@H](O)c1cccc(-c2ccc3c(c2)C(=O)NC[C@H]2CN(C)C[C@H]32)c1 [Example 248, (3aS,10bS)-8-(3-((S)-1-Hydroxyethyl)phenyl)-2-methyl-1,2,3,3a,4,5-hexahydrobenzo[e]pyrrolo[3,4-c]azepin-6(10bH)-one] | > 10 | inactive | 2 | 100 |  |  |  |  |  |
| O=S(=O)(c1cccc(OC(F)(F)F)c1)N1Cc2cccnc2[C@@H]2CNC[C@H]2C1 (relative stereo) [Example 366, Trans-6-{[3-(trifluoromethoxy)phenyl]sulfonyl}-5,6,7,7a,8,9,10,10a-octahydropyrido[3,2-c]pyrrolo[3,4-e]azepine] | 0.2 |  | 100 | 85 | 85 |  |  |  |  |
| O=S(=O)(c1cccs1)N1Cc2cccnc2[C@@H]2CNC[C@H]2C1 (relative stereo) [Example 358, Trans-6-(2-thienylsulfonyl)-5,6,7,7a,8,9,10,10a-octahydropyrido[3,2-c]pyrrolo[3,4-e]azepine] | > 10 | inactive | 300 |  |  | 20 |  |  |  |
| CN1C[C@H]2CNC(=O)c3cc(N4CCCCC4)ccc3[C@@H]2C1 (relative stereo) [Example 298, Trans-2-methyl-8-(piperidin-1-yl)-2,3,3a,4,5,10b-hexahydropyrrolo[3,4-d][2]benzazepin-6(1H)-one] | > 10 | inactive | 400 | 80 |  |  |  |  |  |
| Fc1cc(F)c2c(c1)[C@H]1CNC[C@@H]1CCO2 (relative stereo) [Example 283, Trans-7,9-difluoro-2,3,3a,4,5,10b-hexahydro-1H-[1]benzoxepino[4,5-c]pyrrole] |  |  |  |  |  | 80 | 50 | 0.06 | 800 |
| CC(C)c1ccc(-c2ccc3c(c2)C(=O)NC[C@@H]2CN(C)C[C@@H]32)cc1 (relative stereo) [Example 138, Trans-8-(4-isopropylphenyl)-2-methyl-1,2,3,3a,4,5-hexahydrobenzo[e]pyrrolo[3,4-c]azepin-6(10bH)-one] | > 10 | inactive | 100 | > 120 |  |  |  |  |  |
| O=C1NC[C@@H]2CNC[C@H]2c2ccc(OCc3ccccc3F)cc21 [Example 180, (3aS,10bR)-8-(2-Fluorobenzyloxy)-1,2,3,3a,4,5-hexahydrobenzo[e]pyrrolo[3,4-c]azepin-6(10bH)-one] |  | inactive |  |  |  | > 120 |  | > 10 |  |
| COc1c(C)cc(-c2ccc3c(c2)C(=O)NC[C@@H]2CN(C)C[C@@H]32)cc1C (relative stereo) [Example 317, Trans-8-(4-methoxy-3,5-dimethylphenyl)-2-methyl-2,3,3a,4,5,10b-hexahydropyrrolo[3,4-d][2]benzazepin-6(1H)-one] | > 10 | inactive | 70 | 75 |  |  |  |  |  |
| O=C1NC[C@@H]2CN(Cc3ccccc3)C[C@H]2c2cccnc21 (relative stereo) [Example 154, Trans-2-benzyl-1,2,3,3a,4,5-hexahydropyrido[3,2-e]pyrrolo[3,4-c]azepin-6(10bH)-one] | > 10 | inactive | 2000 |  |  | 90 |  |  |  |
| CN1C[C@H]2CNC(=O)c3cc(C4CCCC4)ccc3[C@@H]2C1 (relative stereo) [Example 205, Trans-8-cyclopentyl-2-methyl-1,2,3,3a,4,5-hexahydrobenzo[e]pyrrolo[3,4-c]azepin-6(10bH)-one] | > 10 | inactive | 300 |  |  | 90 |  |  |  |
| COc1ccc2c(c1)[C@H]1CN(Cc3ccccc3)C[C@@H]1CCC2=O (relative stereo) [Example 261, Trans-2-benzyl-9-methoxy-2,3,3a,4,5,10b-hexahydrobenzo[3,4]cyclohepta[1,2-c]pyrrol-6(1H)-one] | > 10 | inactive | 40 | > 120 |  |  |  |  |  |
| Clc1cccc2c1NCC[C@@H]1CNC[C@@H]21 (relative stereo) [Example 392, Trans-7-chloro-1,2,3,3a,4,5,6,10b-octahydropyrrolo[3,4-d][1]benzazepine] |  |  |  |  |  | 100 | 65 | 0.04 | 0.7 |
| CN1C[C@@H]2CNC(=O)c3cc(-c4ccc5c(c4)C(=O)CC5)ccc3[C@H]2C1 [Example 306, (3aS,10bS)-2-Methyl-8-(3-oxo-2,3-dihydro-1H-inden-5-yl)-2,3,3a,4,5,10b-hexahydropyrrolo[3,4-d][2]benzazepin-6(1H)-one] | > 10 | inactive | 10 | 90 |  |  |  |  |  |
| COc1cc(C)ccc1-c1ccc2c(c1)C(=O)NC[C@@H]1CN(C)C[C@@H]21 (relative stereo) [Example 302, Trans-8-(2-methoxy-4-methylphenyl)-2-methyl-2,3,3a,4,5,10b-hexahydropyrrolo[3,4-d][2]benzazepin-6(1H)-one] | > 10 | inactive | 70 | 95 |  |  |  |  |  |
| FC(F)(F)Oc1cccc2c1OCC[C@H]1CNC[C@H]21 (relative stereo) [Example 285, Trans-7-(trifluoromethoxy)-2,3,3a,4,5,10b-hexahydro-1H-[1]benzoxepino[4,5-c]pyrrole] |  |  |  |  |  | 100 | 90 | 0.009 | < 0.1 |
| CN1C[C@H]2CNC(=O)c3cc(-c4ccccc4S(C)(=O)=O)ccc3[C@@H]2C1 (relative stereo) [Example 232, Trans-2-methyl-8-(2-(methylsulfonyl)phenyl)-1,2,3,3a,4,5-hexahydrobenzo[c]pyrrolo[3,4-e]azepin-6(10bH)-one] | > 10 | inactive | 3000 | 30 |  |  |  |  |  |
| O=C1NC[C@@H]2CN(Cc3ccccc3)C[C@H]2c2cnccc21 (relative stereo) [Example 152, Trans-2-benzyl-1,2,3,3a,4,5-hexahydropyrido[3,4-e]pyrrolo[3,4-c]azepin-6(10bH)-one] | > 10 | inactive | 2000 |  |  | 50 |  |  |  |
| O=S(=O)(c1cccc(Cl)c1)N1Cc2cccnc2[C@@H]2CNC[C@H]2C1 (relative stereo) [Example 359, Trans-6-[(3-chlorophenyl)sulfonyl]-5,6,7,7a,8,9,10,10a-octahydropyrido[3,2-c]pyrrolo[3,4-e]azepine] |  |  |  |  |  | 80 | 30 | 0.5 | 100 |
| COc1cccc(S(=O)(=O)N2Cc3cccnc3[C@@H]3CNC[C@H]3C2)c1 (relative stereo) [Example 336, Trans-6-[(3-methoxyphenyl)sulfonyl]-5,6,7,7a,8,9,10,10a-octahydropyrido[3,2-e]pyrrolo[3,4-e]azepine] | 0.6 |  | 90 | 90 | 70 |  |  |  |  |
| C[C@@H](O)c1cccc(-c2ccc3c(c2)C(=O)NC[C@H]2CN(C)C[C@H]32)c1 [Example 249, (3aS,10bS)-8-(3-((R)-1-Hydroxyethyl)phenyl)-2-methyl-1,2,3,3a,4,5-hexahydrobenzo[e]pyrrolo[3,4-c]azepin-6(10bH)-one] | > 10 | inactive | 2 | 100 |  |  |  |  |  |
| Nc1ccc2c(c1)C(=O)NC[C@@H]1CNC[C@@H]21 (relative stereo) [Example 144, Trans-8-amino-1,2,3,3a,4,5-hexahydrobenzo[e]pyrrolo[3,4-c]azepin-6(10bH)-one] |  |  |  |  |  | > 120 | 60 | 1 | 100 |
| COc1ccc2c(c1)[C@H]1CNC[C@@H]1CCC2=O [Example 259, (3aR,10bS)-9-Methoxy-2,3,3a,4,5,10b-hexahydrobenzo[3,4]cyclohepta[1,2-c]pyrrol-6(1H)-one] |  |  |  |  |  | > 120 | 85 | 1 | 60 |
| CC(C)c1ccc2c(c1)C(=O)NC[C@@H]1CN(C)C[C@@H]21 (relative stereo) [Example 196, Trans-8-isopropyl-2-methyl-1,2,3,3a,4,5-hexahydrobenzo[e]pyrrolo[3,4-c]azepin-6(10bH)-one] | > 10 | inactive | 500 |  |  | 30 |  |  |  |
| CN1C[C@@H]2CNC(=O)c3cc(OCc4cccc(F)c4)ccc3[C@H]2C1 [Example 206, (3aS,10bS)-8-(3-Fluorobenzyloxy)-2-methyl-1,2,3,3a,4,5-hexahydrobenzo[e]pyrrolo[3,4-c]azepin-6(10bH)-one] | > 10 | inactive | 2 | > 120 |  |  |  |  |  |

From US8846951B2 (AbbVie Inc., priority 2009, dated 2014)
